Data from US12138256B2, “Treatment of cardiopulmonary disorders” (Bayer Aktiengesellschaft, priority 2021, dated 2024).
Several values for one entry are separate records, joined by “and”; a condition that tells them apart may be missing. Equal values may be shown once.

Tested on: thromboxane analog U46619 induced PAH in minipigs
Test: Haemodynamics (PAP, BP) in the anesthetized thromboxane challenged PAH minipig after inhaled (nebulized) application (C-2.1)
Assay type: in vivo, Göttingen minipig
Settings: inhaled; for PAP % changes vs prevalue, mean: n = 3; for BP % change vs. baseline / PAP % change vs. baseline: individual animals
Method in brief: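 Anesthetized, ventilated Göttingen minipigs (2-6 kg) given continuous infusion (0.3-0.75 μg/kg/min) to raise mean PAP above 25 mmHg, dosing starting after a 30 min plateau. Compound in 1% DMSO/0.2% citric acid, pH 8, nebulized via Aeroneb Pro into the inspiratory arm (~7 min; stock 300 μg/kg). PAP by Swan-Ganz catheter, BP via carotid catheter.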

[1] = 100 μg/kg nominal dose, time 80 min
[2] = 100 μg/kg nominal dose, time 90 min
[3] = 100 μg/kg nominal dose, time 100 min
[4] = 100 μg/kg nominal dose, time 110 min
[5] = 100 μg/kg nominal dose, time 120 min
[6] = 100 μg/kg nominal dose, time 130 min
[7] = 100 μg/kg nominal dose, time 140 min
[8] = 100 μg/kg nominal dose, time 150 min
[9] = 100 μg/kg nominal dose, time 160 min
[10] = 100 μg/kg nominal dose, time 170 min
[11] = 100 μg/kg nominal dose, time 180 min

With `O=C(O)c1ccc(CCN(CCc2ccccc2OCc2ccc(-c3ccc(C(F)(F)F)cc3)cc2Cl)[C@H]2CCCc3nc(C(=O)O)ccc32)cc1` [comparative example 11, (5S)-5-{[2-(4-carboxyphenyl)ethyl][2-(2-{[3-chloro-4′-(trifluoromethyl)[biphenyl]-4-yl]methoxy}phenyl)ethyl]amino}-5,6,7,8-tetrahydroquinoline-2-carboxylic acid] the “PAP % changes vs prevalue, mean” value (10 μg/kg nominal dose, time 0 min) was 0%, the “PAP % changes vs prevalue, mean” value (10 μg/kg nominal dose, time 10 min) was 0.6% and the “PAP % changes vs prevalue, mean” value (10 μg/kg nominal dose, time 20 min) was 0.2%. The “PAP % changes vs prevalue, mean” value (10 μg/kg nominal dose, time 30 min) was −0.7%, the “PAP % changes vs prevalue, mean” value (10 μg/kg nominal dose, time 40 min) was −1.5% and the “PAP % changes vs prevalue, mean” value (10 μg/kg nominal dose, time 50 min) was −2.3%. The “PAP % changes vs prevalue, mean” value (10 μg/kg nominal dose, time 60 min) was −3.5%, the “PAP % changes vs prevalue, mean” value (10 μg/kg nominal dose, time 70 min) was −4.2% and the “PAP % changes vs prevalue, mean” value (10 μg/kg nominal dose, time 80 min) was −3.7%. For the same compound, the “PAP % changes vs prevalue, mean” value (10 μg/kg nominal dose, time 90 min) was −4.3%, the “PAP % changes vs prevalue, mean” value (10 μg/kg nominal dose, time 100 min) was −5.3% and the “PAP % changes vs prevalue, mean” value (10 μg/kg nominal dose, time 110 min) was −6.2%. For the same compound, the “PAP % changes vs prevalue, mean” value (10 μg/kg nominal dose, time 120 min) was −6.7%, the “PAP % changes vs prevalue, mean” value (10 μg/kg nominal dose, time 130 min) was −6.2% and the “PAP % changes vs prevalue, mean” value (10 μg/kg nominal dose, time 140 min) was −7%. For the same compound, the “PAP % changes vs prevalue, mean” value (10 μg/kg nominal dose, time 150 min) was −7.6%, the “PAP % changes vs prevalue, mean” value (10 μg/kg nominal dose, time 160 min) was −7.6% and the “PAP % changes vs prevalue, mean” value (10 μg/kg nominal dose, time 170 min) was −8.2%. For the same compound, the “PAP % changes vs prevalue, mean” value (10 μg/kg nominal dose, time 180 min) was −8.0%, the “PAP % changes vs prevalue, mean” value (10 μg/kg nominal dose, time 190 min) was −7.8% and the “PAP % changes vs prevalue, mean” value (10 μg/kg nominal dose, time 200 min) was −7.3%. For the same compound, the “PAP % changes vs prevalue, mean” value (10 μg/kg nominal dose, time 210 min) was −7.5%, the “PAP % changes vs prevalue, mean” value (10 μg/kg nominal dose, time 220 min) was −7.2% and the “PAP % changes vs prevalue, mean” value (10 μg/kg nominal dose, time 230 min) was −7.2%. For the same compound, the “PAP % changes vs prevalue, mean” value (10 μg/kg nominal dose, time 240 min) was −7.6%, the “PAP % changes vs prevalue, mean” value (30 μg/kg nominal dose, time 0 min) was 0% and the “PAP % changes vs prevalue, mean” value (30 μg/kg nominal dose, time 10 min) was 0.3%. The “PAP % changes vs prevalue, mean” value (30 μg/kg nominal dose, time 20 min) was −2.0%, the “PAP % changes vs prevalue, mean” value (30 μg/kg nominal dose, time 30 min) was −4.6% and the “PAP % changes vs prevalue, mean” value (30 μg/kg nominal dose, time 40 min) was −7.8%. For the same compound, the “PAP % changes vs prevalue, mean” value (30 μg/kg nominal dose, time 50 min) was −9.8%, the “PAP % changes vs prevalue, mean” value (30 μg/kg nominal dose, time 60 min) was −11.8% and the “PAP % changes vs prevalue, mean” value (30 μg/kg nominal dose, time 70 min) was −14.1%. For the same compound, the “PAP % changes vs prevalue, mean” value (30 μg/kg nominal dose, time 80 min) was −14.2%, the “PAP % changes vs prevalue, mean” value (30 μg/kg nominal dose, time 90 min) was −14.4% and the “PAP % changes vs prevalue, mean” value (30 μg/kg nominal dose, time 100 min) was −14.8%. The “PAP % changes vs prevalue, mean” value (30 μg/kg nominal dose, time 110 min) was −15.3%, the “PAP % changes vs prevalue, mean” value (30 μg/kg nominal dose, time 120 min) was −15.3% and the “PAP % changes vs prevalue, mean” value (30 μg/kg nominal dose, time 130 min) was −15.5%. For the same compound, the “PAP % changes vs prevalue, mean” value (30 μg/kg nominal dose, time 140 min) was −15.3%, the “PAP % changes vs prevalue, mean” value (30 μg/kg nominal dose, time 150 min) was −16.3% and the “PAP % changes vs prevalue, mean” value (30 μg/kg nominal dose, time 160 min) was −16.3%. For the same compound, the “PAP % changes vs prevalue, mean” value (30 μg/kg nominal dose, time 170 min) was −14.9%, the “PAP % changes vs prevalue, mean” value (30 μg/kg nominal dose, time 180 min) was −14.7% and the “PAP % changes vs prevalue, mean” value (30 μg/kg nominal dose, time 190 min) was −15.1%. The “PAP % changes vs prevalue, mean” value (30 μg/kg nominal dose, time 200 min) was −15.3%, the “PAP % changes vs prevalue, mean” value (30 μg/kg nominal dose, time 210 min) was −13.8% and the “PAP % changes vs prevalue, mean” value (30 μg/kg nominal dose, time 220 min) was −13.6%. The “PAP % changes vs prevalue, mean” value (30 μg/kg nominal dose, time 230 min) was −12.8%, the “PAP % changes vs prevalue, mean” value (30 μg/kg nominal dose, time 240 min) was −13.4% and the “PAP % changes vs prevalue, mean” value (100 μg/kg nominal dose, time 0 min) was 0%. For the same compound, the “PAP % changes vs prevalue, mean” value (100 μg/kg nominal dose, time 10 min) was −2.1%, the “PAP % changes vs prevalue, mean” value (100 μg/kg nominal dose, time 20 min) was −7.2% and the “PAP % changes vs prevalue, mean” value (100 μg/kg nominal dose, time 30 min) was −14.6%. For the same compound, the “PAP % changes vs prevalue, mean” value (100 μg/kg nominal dose, time 40 min) was −18.1%, the “PAP % changes vs prevalue, mean” value (100 μg/kg nominal dose, time 50 min) was −22.2% and the “PAP % changes vs prevalue, mean” value (100 μg/kg nominal dose, time 60 min) was −25.1%. The “PAP % changes vs prevalue, mean” value (100 μg/kg nominal dose, time 70 min) was −27.0%, the “BP % change vs. baseline” value [1] was 103.2% and 100.0% and 100.1% and the “PAP % change vs. baseline” value [1] was 103.3% and 100.0% and 98.5%. For the same compound, the “PAP % changes vs prevalue, mean” value [1] was −27.9%, the “BP % change vs. baseline” value [2] was 98.8% and 98.2% and 100.1% and the “PAP % change vs. baseline” value [2] was 98.8% and 102.2% and 99.6%. For the same compound, the “PAP % changes vs prevalue, mean” value [2] was −28.9%, the “BP % change vs. baseline” value [3] was 101.0% and 100.0% and 100.1% and the “PAP % change vs. baseline” value [3] was 99.4% and 97.3% and 97.5%. The “PAP % changes vs prevalue, mean” value [3] was −31.1%, the “BP % change vs. baseline” value [4] was 98.8% and 99.1% and 98.2% and the “PAP % change vs. baseline” value [4] was 94.0% and 90.4% and 94.4%. The “PAP % changes vs prevalue, mean” value [4] was −30.8%, the “BP % change vs. baseline” value [5] was 98.8% and 98.2% (2×) and the “PAP % change vs. baseline” value [5] was 87.4% and 80.2% and 88.8%. The “PAP % changes vs prevalue, mean” value [5] was −31.3%, the “BP % change vs. baseline” value [6] was 98.8% and 98.2% and 99.2% and the “PAP % change vs. baseline” value [6] was 84.3% and 75.6% and 86.1%. The “PAP % changes vs prevalue, mean” value [6] was −31.2%, the “BP % change vs. baseline” value [7] was 98.8% and 96.5% and 102.0% and the “PAP % change vs. baseline” value [7] was 82.2% and 69.4% and 82.1%. For the same compound, the “PAP % changes vs prevalue, mean” value [7] was −31.6%, the “BP % change vs. baseline” value [8] was 97.7% and 95.6% and 103.0% and the “PAP % change vs. baseline” value [8] was 80.0% and 67.4% and 77.3%. For the same compound, the “PAP % changes vs prevalue, mean” value [8] was −31.1%, the “BP % change vs. baseline” value [9] was 98.8% and 93.9% and 101.1% and the “PAP % change vs. baseline” value [9] was 78.2% and 66.2% and 74.6%. For the same compound, the “PAP % changes vs prevalue, mean” value [9] was −30.1%, the “BP % change vs. baseline” value [10] was 98.8% and 95.6% and 99.2% and the “PAP % change vs. baseline” value [10] was 78.1% and 65.9% and 72.4%. For the same compound, the “PAP % changes vs prevalue, mean” value [10] was −31.1%, the “BP % change vs. baseline” value [11] was 97.7% and 92.1% and 99.2% and the “PAP % change vs. baseline” value [11] was 78.5% and 62.7% and 72.2%. The “PAP % changes vs prevalue, mean” value [11] was −31.1% and the “BP % change vs. baseline” value (100 μg/kg nominal dose, time 190 min) was 98.8% and 91.2% and 96.3%.
